We go through 17 molecules from ChEMBL document CHEMBL1157113, “Insulin-like growth factor-1 receptor (IGF-1R) kinase inhibitors: SAR of a series of 3-[6-(4-substituted-piperazin-1-yl)-4-methyl-1H-benzimidazol-2-yl]-1H-pyridine-2-one” (Bioorg Med Chem Lett, 2010).

Common to all, as to assay type: ADME, organism-based
A short description of data set [1]: AUC (0 to 4 hrs) in mouse at 20 mg/kg. Also on record: time < 4 hr, dose 20 mg/kg. The following applies: plasma.
A short description of data set [2]: Half life in mouse at 5 mg/kg, iv and 75 mg/kg, po. The following applies: in vivo.
A short description of data set [3]: Total clearance in rat at 5 mg/kg, iv and 75 mg/kg, po. The following applies: in vivo.
Data set [4] in a line: Half life in rat at 5 mg/kg, iv and 75 mg/kg, po. As to conditions: in vivo.
A short description of data set [5]: Volume of distribution at steady state in rat at 5 mg/kg, iv and 75 mg/kg, po. The following applies: in vivo, read-out: Vdss.
Data set [6] is described as follows: Total clearance in mouse at 5 mg/kg, iv and 75 mg/kg, po. As to conditions: in vivo.
A short description of data set [7]: Oral bioavailability in mouse at 75 mg/kg. The following applies: in vivo.
The nature of data set [8]: Oral bioavailability in rat at 75 mg/kg. As to conditions: in vivo.
Data set [9] is described as follows: Volume of distribution at steady state in mouse at 5 mg/kg, iv and 75 mg/kg, po. As to conditions: in vivo, read-out: Vdss.

Broadly, the AUC(0-t) is the area under the concentration-time curve up to a stated or last time point. The low end stands for low exposure, the high end for high exposure. In the case of `Cc1cc(N2CCN(CCF)CC2)cc2[nH]c(-c3c(NC[C@@H](O)c4cccc(Cl)c4)cc[nH]c3=O)nc12`, the AUC(0-t) at 4 h in data set [1] was 17.7 µM·h.

In turn, `Cc1cc(N2CCN(CCC#N)CC2)cc2nc(-c3c(NC[C@@H](O)c4cccc(Cl)c4)cc[nH]c3=O)[nH]c12` showed an AUC(0-t) at 4 h in data set [1] of 22.1 µM·h.

As a reminder, the half-life is how long it takes for the measured level to halve. Usually bioavailability stands for dose-corrected exposure relative to a reference, in per cent. Low readings indicate poor availability, high ones good availability. With `COCCN1CCN(c2cc(C)c3nc(-c4c(NC[C@@H](O)c5cccc(Cl)c5)cc[nH]c4=O)[nH]c3c2)CC1`, the half-life is 2.9 h in [2] and 1.9 h in [4]. Further, the values for the clearance in [3] and in data set [6] were 27.8 mL/min/kg and 25.2 mL/min/kg, respectively. Moreover, the Vd in data set [5] is 2.9 L/kg; in [9], 4.9 L/kg. In [1], this molecule displayed an AUC(0-t) at 4 h of 11.1 µM·h. The bioavailability in data set [7] and in data set [8] was 26% each time.

In the case of `CNC(=O)CN1CCN(c2cc(C)c3nc(-c4c(NC[C@@H](O)c5cccc(Cl)c5)cc[nH]c4=O)[nH]c3c2)CC1`, the AUC(0-t) at 4 h in data set [1] was found to be 1.6 µM·h.

Take `Cc1cc(N2CCN(CCCF)CC2)cc2[nH]c(-c3c(NC[C@@H](O)c4cccc(Cl)c4)cc[nH]c3=O)nc12`: in data set [1], the exposure AUC(0-t) at 4 h worked out at 11.4 µM·h.

In data set [1], `CCOC(=O)N1CCN(c2cc(C)c3nc(-c4c(NC[C@@H](O)c5cccc(Cl)c5)cc[nH]c4=O)[nH]c3c2)CC1` yielded an AUC(0-t) at 4 h of 25.3 µM·h.

Molecule `Cc1cc(N2CCN(CC#N)CC2)cc2[nH]c(-c3c(NC[C@@H](O)c4cccc(Cl)c4)cc[nH]c3=O)nc12` had an AUC(0-t) at 4 h in data set [1] of 10.3 µM·h.

`Cc1cc(N2CCN(C(=O)CCCF)CC2)cc2[nH]c(-c3c(NC[C@@H](O)c4cccc(Cl)c4)cc[nH]c3=O)nc12` showed an AUC(0-t) at 4 h in data set [1] of 4.5 µM·h.

Regarding `COC(=O)N1CCN(c2cc(C)c3nc(-c4c(NC[C@@H](O)c5cccc(Cl)c5)cc[nH]c4=O)[nH]c3c2)CC1`, the AUC(0-t) at 4 h in [1] is 57.1 µM·h.

For the molecule `Cc1cc(N2CCNCC2)cc2[nH]c(-c3c(NC[C@@H](O)c4cccc(Cl)c4)cc[nH]c3=O)nc12`, in data set [1], the AUC(0-t) at 4 h is 26.5 µM·h.

In data set [1], `Cc1cc(N2CCN(C)CC2)cc2[nH]c(-c3c(NC[C@@H](O)c4cccc(Cl)c4)cc[nH]c3=O)nc12` came in with an AUC(0-t) at 4 h of 3.4 µM·h.

For `Cc1cc(N2CCN(S(C)(=O)=O)CC2)cc2[nH]c(-c3c(NC[C@@H](O)c4cccc(Cl)c4)cc[nH]c3=O)nc12`, the AUC(0-t) at 4 h in data set [1] turned out to be 7.2 µM·h.

In data set [1], `Cc1cc(N2CCN(CC(=O)NCCF)CC2)cc2[nH]c(-c3c(NC[C@@H](O)c4cccc(Cl)c4)cc[nH]c3=O)nc12` gave an exposure AUC(0-t) at 4 h of 1.4 µM·h.

`CCN1CCN(c2cc(C)c3nc(-c4c(NC[C@@H](O)c5cccc(Cl)c5)cc[nH]c4=O)[nH]c3c2)CC1`: the AUC(0-t) at 4 h in [1] was 1 µM·h.

In data set [1], `CC(=O)N1CCN(c2cc(C)c3nc(-c4c(NC[C@@H](O)c5cccc(Cl)c5)cc[nH]c4=O)[nH]c3c2)CC1` returned an AUC(0-t) at 4 h of 3.1 µM·h.

Take `Cc1cc(N2CCN(C(=O)OC(C)(C)C)CC2)cc2[nH]c(-c3c(NC[C@@H](O)c4cccc(Cl)c4)cc[nH]c3=O)nc12`: in data set [1], the AUC(0-t) at 4 h was found to be 8.3 µM·h.

Turning to `Cc1cc(N2CCOCC2)cc2[nH]c(-c3c(NC[C@@H](O)c4cccc(Cl)c4)cc[nH]c3=O)nc12`, in data set [1], the AUC(0-t) at 4 h stood at 50 µM·h.
